Values quoted from earlier work, collected in US20100021530A1, “ENHANCED TRANS-KERATIN DRUG DELIVERY” (Innovation Biomedical Devices, Inc., priority 2008, published 2010).

System: Tinea unguium or onychomycosis (nail fungus)
Conditions: topical, after a year of treatment, at best

Cc1cc(C2CCCCC2)n(O)c(=O)c1 [ciclopirox]
cure rate: around 20%
